In ChEMBL document CHEMBL1154029, “Novel derivatives of ISO-1 as potent inhibitors of MIF biological function” (Bioorg Med Chem Lett, 2009):

How the values were obtained:
[1] = biological target: T1, Macrophage migration inhibitory factor (Homo sapiens, UniProt P14174); assay: Inhibition of dopachrome tautomerase activity of MIF in human THP1 cells; assay type: cell-based, THP-1
T1 sequence (P14174 whole entry): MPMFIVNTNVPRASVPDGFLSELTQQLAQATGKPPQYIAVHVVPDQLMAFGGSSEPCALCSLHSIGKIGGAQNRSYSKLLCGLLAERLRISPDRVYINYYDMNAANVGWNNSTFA

[2] = biological target: T1, Macrophage migration inhibitory factor; assay: Inhibition of dopachrome tautomerase activity of human recombinant MIF
[3] = biological target: T1, Macrophage migration inhibitory factor; assay: Inhibition of spontaneous secretion/release/recognition of MIF from freshly isolated human PBMC by ELISA
[4] = biological target: T2, Macrophage migration inhibitory factor (Homo sapiens) (UniProt P14174); assay: Inhibition of MIF-induced IL6 production in human PBMC at 100 uM by ELISA
T2 sequence (whole entry): T1 sequence (P14174 whole entry)

[5] = biological target: T2, Macrophage migration inhibitory factor (Homo sapiens); assay: Inhibition of MIF-induced IL1-beta production in human PBMC at 100 uM by ELISA
[6] = biological target: T2, Macrophage migration inhibitory factor (Homo sapiens); assay: Inhibition of MIF-induced TNFalpha production in human PBMC at 100 uM by ELISA

| SMILES | IC50 [1] | IC50 [2] | IC50 [3] | inhibition [4] | IC50 ([3]; read-out: IC50) | inhibition [5] | inhibition [6] |
| --- | --- | --- | --- | --- | --- | --- | --- |
| COC(=O)CCc1nc(C2CC(c3ccc(O)c(F)c3)=NO2)no1 (centres undefined) | 50 µM | > 100 µM | Not Active |  |  |  |  |
| COc1ccc(C2=NOC(c3noc(C)n3)C2)cc1F (centres undefined) | > 100 µM |  |  |  |  |  |  |
| Oc1ccc(C2=NOC(Cc3noc(C(F)(F)F)n3)C2)cc1F (centres undefined) |  |  |  | 33% |  | 46% | 34% |
| COC(=O)CC1CC(c2ccc(O)cc2)=NO1 (centres undefined) |  |  |  | 0% |  | 25% | 25% |
| COc1ccc(C2=NOC(c3noc(C(F)(F)F)n3)C2)cc1F (centres undefined) | 100 µM | 95 µM |  |  |  |  |  |
| COc1ccc(C2=NOC(c3noc(CCC(=O)NC4CCCCC4)n3)C2)cc1F (centres undefined) | 30 µM | 9.5 µM | Not Active |  |  |  |  |
| CN(C)C(=O)NCC1CC(c2ccc(O)c(F)c2)=NO1 (centres undefined) | > 100 µM |  |  |  |  |  |  |
| Oc1ccc(C2=NOC(c3noc(C(F)(F)F)n3)C2)cc1F (centres undefined) | 60 µM | > 100 µM |  |  |  |  |  |
| CC(C)(C)C(=O)NCC1CC(c2ccc(O)c(F)c2)=NO1 (centres undefined) | > 100 µM |  |  |  |  |  |  |
| CC(C)CC(=O)NCC1CC(c2ccc(O)c(F)c2)=NO1 (centres undefined) | > 100 µM |  |  |  |  |  |  |
| O=C(NCCC1CC(c2ccc(O)c(F)c2)=NO1)C(F)(F)F (centres undefined) | 49 µM | > 100 µM |  | 49% | 15 µM | 66% | 53% |
| COc1ccc(C2=NOC(Cc3noc(C(F)(F)F)n3)C2)cc1F (centres undefined) | > 100 µM | 55 µM |  |  |  |  |  |
| O=C1c2ccccc2C(=O)N1CC1CC(c2ccc(O)c(F)c2)=NO1 (centres undefined) | 29 µM | 36 µM | Not Active |  |  |  |  |
| COc1ccc(C2=NOC(c3noc(-c4ccccc4N(C)C(=O)O)n3)C2)cc1F (centres undefined) | > 100 µM |  |  |  |  |  |  |
| Cc1nc(C2CC(c3ccc(O)c(F)c3)=NO2)no1 (centres undefined) | 60 µM | > 100 µM |  |  |  |  |  |

Results, then the molecule that gave them:

| IC50 [1] | IC50 [2] | IC50 [3] | inhibition [4] | IC50 ([3]; read-out: IC50) | inhibition [5] | inhibition [6] | SMILES |
| --- | --- | --- | --- | --- | --- | --- | --- |
| 15 µM | 20 µM |  | 54% | 10 µM | 52% | 56% | O=C(NCCC1CC(c2ccc(O)c(F)c2)=NO1)c1ccc(F)cc1 (centres undefined) |
| 0.5 µM | 0.8 µM |  | 22% | 1.5 µM | 22% | 31% | O=C1c2ccccc2C(=O)N1CCC1CC(c2ccc(O)c(F)c2)=NO1 (centres undefined) |
| 28 µM | 22 µM |  | 39% | 15 µM | 50% | 40% | CC(C)(C)C(=O)NCCC1CC(c2ccc(O)c(F)c2)=NO1 (centres undefined) |
| 20 µM | 32 µM | Not Active |  |  |  |  | COc1ccc(C2=NOC(c3noc(-c4cccc(OC)c4OC)n3)C2)cc1F (centres undefined) |
| 12 µM | > 100 µM |  |  | 60 µM |  |  | COc1ccc(C2=NOC(c3noc(CCC(=O)O)n3)C2)cc1F (centres undefined) |
| 29 µM | 22 µM |  | 47% | 20 µM | 58% | 53% | CC(C)CC(=O)NCCC1CC(c2ccc(O)c(F)c2)=NO1 (centres undefined) |
| 15 µM | 50 µM |  | 14% | 20 µM | 27% | 39% | O=C1CCC(=O)N1CCC1CC(c2ccc(O)c(F)c2)=NO1 (centres undefined) |
| 19 µM | > 100 µM | Not Active |  |  |  |  | Oc1ccc(C2=NOC(c3noc(-c4cccc(O)c4O)n3)C2)cc1F (centres undefined) |
| 25 µM | > 100 µM | Not Active |  |  |  |  | O=C(CCc1nc(C2CC(c3ccc(O)c(F)c3)=NO2)no1)NC1CCCCC1 (centres undefined) |
| 2 µM | 7 µM | Not Active |  |  |  |  | O=C1c2ccccc2C(=O)N1CCCC1CC(c2ccc(O)c(F)c2)=NO1 (centres undefined) |
